In article PMC9015998, “Non-clinical Pharmacology of YTX-7739: a Clinical Stage Stearoyl-CoA Desaturase Inhibitor Being Developed for Parkinson’s Disease” (Molecular Neurobiology, 2022):
pIC50: −log10 of the molar value.

Target: T1, rat SCD (Rattus norvegicus, UniProt P07308)
T1 construct: rat liver microsomes (RLMs) isolated from rats fed a […] to induce SCD expression; from tissue; host or cells: rat liver microsomes (SCD-induced by diet); assay run at PureHoney Technologies
T1 sequence (P07308 1-358): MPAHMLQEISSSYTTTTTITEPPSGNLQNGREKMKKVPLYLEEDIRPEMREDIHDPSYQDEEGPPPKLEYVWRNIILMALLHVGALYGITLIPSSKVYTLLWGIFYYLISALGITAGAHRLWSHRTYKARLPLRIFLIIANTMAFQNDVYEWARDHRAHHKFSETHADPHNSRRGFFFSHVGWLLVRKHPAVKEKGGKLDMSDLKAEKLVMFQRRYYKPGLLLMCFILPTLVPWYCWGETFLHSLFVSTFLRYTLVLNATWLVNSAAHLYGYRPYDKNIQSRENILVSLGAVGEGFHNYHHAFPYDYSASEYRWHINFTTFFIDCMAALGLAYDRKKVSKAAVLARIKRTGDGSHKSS
Experiment: SCD enzyme assay in SCD-induced rat liver microsomes (RLM)
Type: biochemical
Settings: C17:0-CoA substrate, Rapid-Fire mass spectrometry
Experimental: The SCD biochemical assay has been described previously (Vincent et al., 2018). In brief, SCD-induced rat liver microsomes (RLM) were isolated from […] fed a high-carbohydrate, low-fat diet for 5 days. RLM were then used in an optimized biochemical assay using C17:0-CoA as a substrate (Avanti Lipids, #870,717) and Rapid-Fire mass spectrometry to quantify conversion to C17:1-CoA. The RLM assay was performed at PureHoney Technologies (Billerica, MA).
An iterative medicinal chemistry campaign identified YTX-7739 as a SCD inhibitor that reduced conversion of saturated to unsaturated fatty acids (Fig. 1A). The potency of YTX-7739 in inhibiting SCD activity was initially assessed in rat liver microsomes (RLMs) isolated from rats fed a […] to induce SCD expression. RLMs were then used in conjunction with a synthetic C17:0-CoA SCD substrate and rapid-fire mass spectrometry to assess enzyme activity.
Fig. 1 Characterization of in vitro properties of YTX-7739. A SCD reaction converting CoA-linked saturated to monounsaturated fatty acids of 16 (palmitoleic acid) or 18 (oleic acid) carbons in length. […] B YTX-7739 and a reference SCD inhibitor (CAY10566) was tested in a biochemical assay using SCD-induced RLM and C17:0-CoA with Rapid-Fire mass spectrometry as an analytical readout. […] The calculated IC50 values are inset. […]

For `Cc1nnc(-c2ccc(N3CCC(Oc4cc(F)ccc4Cl)CC3)nn2)o1` [CAY10566], the pIC50 was 8.96.
